Laboratory results taken from ChEMBL document CHEMBL5505997, “Synthesis and biological evaluation of novel peptidomimetic inhibitors of the coronavirus 3C-like protease” (Eur J Med Chem, 2024).

Assays:
Human coronavirus OC43 = assay: Antiviral activity against Human coronavirus OC43 infected in Vero cells assessed as reduction in viral yield preincubated with virus for 1 hr followed by washout and compound treatment and measured after 3 days by qRT-PCR analysis; type: functional, organism-based; conditions: Betacoronavirus 1, Vero; for EC90: 72 h, time 3 day
CCRF-CEM = assay: (§1) Cytotoxicity against human CEM cells assessed as reduction in cell viability; type: toxicity, cell-based; conditions: ccrf-cem
[1] = Cytotoxicity against human PBMC cells assessed as reduction in cell viability; type: toxicity, cell-based
[2] = Cytotoxicity against African green monkey Vero cells assessed as reduction in cell viability; type: toxicity, cell-based; conditions: chlorocebus sabaeus
Huh-7 = assay: (§2) Cytotoxicity against human Huh-7 cells assessed as reduction in cell viability; type: toxicity, cell-based; conditions: huh-7
SARS-CoV-2 [3] = assay: Antiviral activity against SARS-CoV-2 infected in Vero cells assessed as reduction in viral yield measured after 48 hrs by qRT-PCR analysis; type: functional, organism-based; conditions: Severe acute respiratory syndrome coronavirus 2, Vero; for EC50: 48 h; for EC90: time 48 hrs
[4] = (§3) Cytotoxicity against human Calu-3 cells assessed as reduction in cell viability; type: toxicity, cell-based; conditions: Calu-3 cells
SARS-CoV-2 [5] = assay: Antiviral activity against SARS-CoV-2 hCoV-19/USA/GA-EHC-2811C/2021 (Omicron B.1.1.529) infected in human Calu-3 cells assessed as reduction in viral yield measured after 48 hrs by qRT-PCR analysis; type: functional, organism-based; conditions: Severe acute respiratory syndrome coronavirus 2, hCoV-19/USA/GA-EHC-2811C/2021 (Omicron B.1.1.529); for EC50: Calu-3, 48 h; for EC90: Calu-3, time 48 hrs
SARS-CoV-2 [6] = assay: Antiviral activity against wild type SARS-CoV-2 WA1 infected in HEK293T cells measured after 48 hrs by Nano-Glo luciferase assay; type: functional, organism-based; conditions: Severe acute respiratory syndrome coronavirus 2, WA1, HEK-293T
SARS-CoV-2 [7] = assay: Antiviral activity against SARS-CoV-2 hCoV-19/USA-WA1/2020 Washington strain infected in Normal human bronchial/tracheal epithelial cells cultured in air-liquid interface media assessed as reduction in viral yield pretreated with compound followed by viral infection for 4 hrs post washout and measured 3 days after virus removal by qRT-PCR analysis; type: functional, organism-based; conditions: Severe acute respiratory syndrome coronavirus 2, hCoV-19/USA-WA1/2020 Washington, Epithelial cell
SARS-CoV-2 [8] = assay: Antiviral activity against SARS-CoV-2 infected in human Caco-2 cells assessed as reduction in viral yield measured after 72 hrs by qRT-PCR analysis; type: functional, organism-based, Severe acute respiratory syndrome coronavirus 2; conditions: for EC90: Severe acute respiratory syndrome coronavirus 2, Caco-2, time 72 hrs
SARS-CoV-2 [9] = assay: Antiviral activity against wild type SARS-CoV-2 Omicron BA.1 infected in HEK293T cells measured after 48 hrs by Nano-Glo luciferase assay; type: functional, organism-based; conditions: Severe acute respiratory syndrome coronavirus 2, Omicron BA.1, HEK-293T
[10] = (§4) Cytotoxicity against human Caco-2 cells assessed as reduction in cell viability; type: toxicity, cell-based; conditions: Caco-2 cells
SARS-CoV-2 [11] = assay: Antiviral activity against SARS-CoV-2 infected in human Calu-3 cells assessed as reduction in viral yield measured after 72 hrs by qRT-PCR analysis; type: functional, organism-based, Severe acute respiratory syndrome coronavirus 2; conditions: for EC90: Severe acute respiratory syndrome coronavirus 2, Calu-3, time 72 hrs; for EC50: Severe acute respiratory syndrome coronavirus 2, Calu-3, 72 h
[12] = as §1; type: toxicity, cell-based, CCRF-CEM; conditions: CEM (CCRF-CEM) cells
[13] = as §2; type: toxicity, cell-based; conditions: Huh-7 cells
Calu-3 = assay: as §3; type: toxicity, cell-based; conditions: calu-3
[14] = Solubility of compound in PBS; type: physicochemical; conditions: buffer
Caco-2 = assay: as §4; type: toxicity, cell-based; conditions: caco-2
SARS-CoV-2 [15] = assay: Selectivity ratio of EC50 for antiviral activity against SARS-CoV-2 infected in Vero cells to EC50 for antiviral activity against SARS-CoV-2 infected in human Calu-3 cells; type: functional, Severe acute respiratory syndrome coronavirus 2
SARS-CoV-2 [16] = assay: Selectivity ratio of EC50 for antiviral activity against SARS-CoV-2 infected in Vero cells to EC50 for antiviral activity against SARS-CoV-2 infected in human Caco-2 cells; type: functional, Severe acute respiratory syndrome coronavirus 2

Compound | EC50 (Human coronavirus OC43) [nM] | EC90 (Human coronavirus OC43) [µM] | CC50 (CCRF-CEM) [µM] | CC50 ([1]; pbmc) [µM] | CC50 ([2]; vero) [µM] | CC50 (Huh-7) [µM] | EC50 (SARS-CoV-2 [3]) [µM] | EC90 (SARS-CoV-2 [3]) [µM] | other results
CC(C)C[C@H](NC(=O)[C@H](Cc1ccc(F)cc1)NC(=O)OCc1ccccc1)C(=O)N[C@H](C=O)C[C@@H]1CCCNC1=O | 800 | 2.6 | > 100 | > 100 | > 100 | > 100 | 6.7 | 7.4 | –
CC(C)C[C@H](NC(=O)[C@H](Cc1cccc2ccccc12)NC(=O)OCc1ccccc1)C(=O)N[C@H](C=O)C[C@@H]1CCCNC1=O | 700 | 1 | 24.3 | 42.4 | > 100 | 38.9 | 2.6 | 5.9 | –
Cc1cc(C(=O)N[C@@H](Cc2cccc3ccccc23)C(=O)N[C@@H](CC(C)C)C(=O)N[C@@H](C[C@@H]2CCCNC2=O)C(O)C(=O)NC2CC2)no1 (stereo not given in full) | 36700 | 87.4 | > 100 | > 100 | > 100 | > 100 | > 10 | > 10 | –
CC(C)C[C@H](NC(=O)[C@H](Cc1cccc2ccccc12)NC(=O)OCc1ccccc1)C(=O)N[C@H](C=O)Cn1ccnn1 | 53500 | 99 | 25.3 | 35.7 | 35.7 | 25.3 | 4.7 | 9.5 | –
CC(C)C[C@H](NC(=O)[C@H](Cc1cccc2ccccc12)NC(=O)c1cc(C(F)(F)F)on1)C(=O)N[C@H](C=O)C[C@@H]1CCCNC1=O | 700 | 1 | 20.3 | 49.9 | 49.9 | 42.5 | 6.1 | 9.9 | –
CCC(CC)COC(=O)[C@H](C)N[P@](=O)(OC[C@H]1O[C@@](C#N)(c2ccc3c(N)ncnn23)[C@H](O)[C@@H]1O)Oc1ccccc1 | 10 | 0.03 | 11.2 | 4.9 | – | 1.4 | 3.2 | 4.7 | CC50 [4]: > 100 µM; EC50 (SARS-CoV-2 [5]): 200 nM; EC90 (SARS-CoV-2 [5]): 600 nM; EC50 (SARS-CoV-2 [6]): 10 nM; EC50 (SARS-CoV-2 [7]): 500 nM; EC90 (SARS-CoV-2 [7]): 900 nM; EC50 (SARS-CoV-2 [8]; Severe acute respiratory syndrome coronavirus 2, Caco-2, 72 h): 30 nM; EC90 (SARS-CoV-2 [8]): 200 nM; CC50 ([2]; Vero cells): > 100 µM; EC50 (SARS-CoV-2 [9]): 14 nM; CC50 [10]: > 100 µM; EC90 (SARS-CoV-2 [11]): 0.7 µM
CC(C)C[C@H](NC(=O)[C@H](Cc1ccc(O)cc1)NC(=O)OCc1ccccc1)C(=O)N[C@H](C=O)C[C@@H]1CCCNC1=O | 8500 | 47.6 | > 100 | > 100 | > 100 | > 100 | > 10 | > 10 | –
CC(C)C[C@H](NC(=O)[C@H](Cc1cccc2ccccc12)NC(=O)OCc1ccccc1)C(=O)N[C@H](C#N)C[C@@H]1CCCNC1=O | 700 | 5.1 | > 100 | > 100 | > 100 | > 100 | > 10 | > 10 | –
Cc1ccsc1C(=O)N[C@@H](Cc1cccc2ccccc12)C(=O)N[C@@H](CC(C)C)C(=O)N[C@H](C=O)C[C@@H]1CCCNC1=O | 300 | 0.8 | 16.3 | 51.5 | 53.1 | 35.1 | 2.2 | 4.8 | –
CC(C)(C)[C@H](NC(=O)C(F)(F)F)C(=O)N1C[C@H]2[C@@H]([C@H]1C(=O)N[C@H](C#N)C[C@@H]1CCNC1=O)C2(C)C | 200 | 0.3 | – | – | – | – | 3.7 | 5.6 | CC50 [4]: > 100 µM; EC50 (SARS-CoV-2 [5]): 700 nM; EC90 (SARS-CoV-2 [5]): 5300 nM; EC50 (SARS-CoV-2 [6]): 34 nM; EC50 (SARS-CoV-2 [7]): 30 nM; EC90 (SARS-CoV-2 [7]): 200 nM; CC50 [12]: > 100 µM; EC90 (SARS-CoV-2 [8]): 300 nM; CC50 ([1]; PBMC cells): > 100 µM; CC50 ([2]; Vero cells): > 100 µM; EC50 (SARS-CoV-2 [9]): 110 nM; CC50 [10]: > 100 µM; CC50 [13]: > 100 µM; EC50 (SARS-CoV-2 [11]): 1900 nM; EC90 (SARS-CoV-2 [11]): 7.6 µM
CC(C)C[C@H](NC(=O)[C@H](Cc1cccc2ccccc12)NC(=O)OCc1ccccc1)C(=O)N[C@H](/C=C(\C#N)C(N)=O)C[C@@H]1CCCNC1=O | 900 | 7 | 29 | > 100 | > 100 | 29 | > 10 | > 10 | –
CCOC(=O)/C=C/[C@H](C[C@@H]1CCCNC1=O)NC(=O)[C@H](CC(C)C)NC(=O)[C@H](Cc1cccc2ccccc12)NC(=O)c1cc(C)on1 | 7300 | 9.7 | 33.4 | > 100 | > 100 | 51.4 | > 10 | > 10 | –
Cc1cc(C(=O)N[C@@H](Cc2cccc3ccccc23)C(=O)N[C@@H](CC(C)C)C(=O)N[C@@H](C[C@@H]2CCCNC2=O)C(O)S(=O)(=O)[O-])no1.[Na+] (stereo not given in full) | 300 | – | 24.3 | 58.6 | > 100 | 51.1 | 4.5 | 9.3 | CC50 (Calu-3): > 100 µM; EC50 (SARS-CoV-2 [5]): 800 nM; EC90 (SARS-CoV-2 [5]): 2700 nM; EC50 (SARS-CoV-2 [7]): 400 nM; EC90 (SARS-CoV-2 [7]): 700 nM; EC90 (SARS-CoV-2 [8]): 1700 nM; solubility [14]: 0.4 mg/mL; CC50 (Caco-2): > 100 µM; Ratio EC50 (SARS-CoV-2 [15]): 3; EC50 (SARS-CoV-2 [11]): 1200 nM; EC90 (SARS-CoV-2 [11]): 5.3 µM; Ratio EC50 (SARS-CoV-2 [16]): 15
CC(C)C[C@H](NC(=O)[C@H](Cc1cccc2ccccc12)NC(=O)OCc1ccccc1)C(=O)N[C@H](C=O)CNC(=O)N1CCC1 | 18000 | 84 | 43.6 | > 100 | > 100 | 43.6 | > 10 | > 10 | –
